# Laboratory results taken from US6599944B1, “Ophtalmic compound with extended dwell time on the eye” (Bausch & Lomb Incorporated, priority 1996, dated 2003).
# Test system: eye of experimental rabbits
# Assay: long-term (5 weeks) eye tolerability test of preserved ophthalmic gel compositions
# Assay type: in vivo, rabbits (Charles River)
# Procedure: Long-term tests were carried out on experimental rabbits (Charles River) with the compositions of Example 1 and 2. In parallel, comparative tests were carried out with a corresponding control group in which the compositions employed were in every respect the same but differed with regard to the preservative. Instead of benzyllauryldimethylammonium chloride, on the one hand benzalkonium chloride was used in the same concentration, and on the other hand, thiomersal (standard concentration) =40 μg/g was used.
# [1] = Carbopol gel, benzalkonium chloride in same concentration as Examples 1 and 2, thiomersal 40 μg/g
smiles,measurement,setting,value
C[CH2][Hg][S]c1ccccc1C(=O)[O-].[Na+] [thiomersal],damage to the tissue of the eye at the end of the test,[1],in some cases also damage to the eye
same,irritation in the eye at the end of the test,[1],severe irritation
same,rabbits showing severe irritation at the end of the test,control groups with other preservative,seven of eight
